Assay results from PubChem BioAssay (NCI).
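Following 48 hours of exposure in 96-well plates, responses at five concentrations were used to interpolate endpoints linearly. TGI marks complete inhibition of growth.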 Where a SMILES comes first, the peptide text is derived from it. [ ]: non-standard residue; d: D form. The star is where a group is joined. ξ: configuration not given here. NMeF = CN[C@@H](Cc1ccccc1)C(=O)O; ξNMeV = CNC(C(=O)O)C(C)C; Boc = CC(C)(C)OC(=O)*; OBn = c1ccc(CO*)cc1

Legend:
Test in all cases: DTP human tumour cell line panel, 48 h
NCI-H522 lung = tested on: NCI-H522 lung
XF 498 CNS = tested on: XF 498 CNS
HT29 colon = tested on: HT29 colon
OVCAR-5 ovarian = tested on: OVCAR-5 ovarian
M19-MEL melanoma = tested on: M19-MEL melanoma
OVCAR-4 ovarian = tested on: OVCAR-4 ovarian
DMS 273 small cell lung = tested on: DMS 273 small cell lung
SNB-78 CNS = tested on: SNB-78 CNS
KM20L2 colon = tested on: KM20L2 colon
EKVX NSCLC = tested on: EKVX NSCLC
LXFL 529 NSCLC = tested on: LXFL 529 NSCLC
SR leukemia = tested on: SR leukemia
DLD-1 colon = tested on: DLD-1 colon
OVCAR-8 ovarian = tested on: OVCAR-8 ovarian
DMS 114 small cell lung = tested on: DMS 114 small cell lung
HOP-18 NSCLC = tested on: HOP-18 NSCLC
RXF-631 renal = tested on: RXF-631 renal

Measured: TGI

N#CC(C#N)=C(N)/C(C#N)=C/c1cc(O)c(O)c(Br)c1
88.5 µM: DMS 114 small cell lung
not listed: HOP-18 NSCLC | RXF-631 renal
> 100 µM: all other assays above

NCC(NC(=O)OCc1ccccc1)C(=O)O (stereo not drawn)
not listed: XF 498 CNS | SR leukemia | RXF-631 renal
> 50 µM: all other assays above

CCOC(=O)C(=O)N=Nc1nc2c(O)c3ccccc3c(O)c2s1
19.4 µM: EKVX NSCLC
35 µM: HT29 colon
10.2 µM: DLD-1 colon
3.64 µM: OVCAR-4 ovarian
4.46 µM: XF 498 CNS
16.1 µM: OVCAR-5 ovarian
8.79 µM: NCI-H522 lung
8.48 µM: SNB-78 CNS
39.9 µM: RXF-631 renal
1.27 µM: M19-MEL melanoma
3.39 µM: DMS 114 small cell lung
9.2 µM: DMS 273 small cell lung
32.1 µM: KM20L2 colon
3.3 µM: LXFL 529 NSCLC
7.06 µM: HOP-18 NSCLC
5.12 µM: OVCAR-8 ovarian
> 100 µM: SR leukemia

C/C(=N/NC(=O)C(N)=O)C(CC(C(=O)Nc1ccccc1C)/C(C)=N\NC(=O)C(N)=O)C(=O)Nc1ccccc1C (stereo not drawn)
not listed: XF 498 CNS | DMS 273 small cell lung | SR leukemia | DMS 114 small cell lung | HOP-18 NSCLC | RXF-631 renal
> 100 µM: all other assays above

CC(C)C(C(=O)N1CCC[C@@H]1C(=O)OCc1ccccc1)N(C)C(=O)C(C(C)C)N(C)C(=O)[C@H](Cc1ccccc1)N(C)C(=O)[C@H](NC(=O)OC(C)(C)C)C(C)C (stereo partly drawn) (Boc-[dV][NMeF][ξNMeV][ξNMeV][dP]-OBn)
not listed: RXF-631 renal
> 100 µM: all other assays above

CCN(CC)C(=S)SC1CCOP(=O)(N(CCCl)CCCl)N1C (stereo not drawn)
0.553 µM: DMS 114 small cell lung
> 96.4 µM: EKVX NSCLC
19.3 µM: LXFL 529 NSCLC
14.8 µM: M19-MEL melanoma
> 79.4 µM: DMS 273 small cell lung
21.3 µM: DLD-1 colon
49.2 µM: OVCAR-8 ovarian
2.18 µM: NCI-H522 lung
46.4 µM: OVCAR-4 ovarian
50 µM: SR leukemia
not listed: XF 498 CNS | RXF-631 renal
> 100 µM: all other assays above

COC(=O)N/N=C/c1oc(-c2ccccc2)c(-c2ccccc2)c1[N+](=O)[O-]
not listed: EKVX NSCLC | HOP-18 NSCLC
> 100 µM: all other assays above

CC(C)C(=O)/C=C/c1ccc(Cl)cc1
39.8 µM: DMS 114 small cell lung
14 µM: DMS 273 small cell lung
> 100 µM: KM20L2 colon
13.8 µM: HOP-18 NSCLC
20.5 µM: XF 498 CNS
31.7 µM: HT29 colon
52.3 µM: OVCAR-4 ovarian
32.2 µM: DLD-1 colon
29.6 µM: M19-MEL melanoma
35.4 µM: OVCAR-5 ovarian
26.2 µM: SR leukemia
30.4 µM: NCI-H522 lung | LXFL 529 NSCLC

CSc1ccc2c(cc1=O)C(NC(=O)c1ccc(OC(C)=O)cc1)CCc1cc(O)c(O)c(O)c1-2 (stereo not drawn)
35.2 µM: LXFL 529 NSCLC
52.4 µM: DMS 114 small cell lung
> 100 µM: SNB-78 CNS | KM20L2 colon
22 µM: OVCAR-4 ovarian
44 µM: EKVX NSCLC
78 µM: OVCAR-5 ovarian
47.1 µM: DMS 273 small cell lung
37.9 µM: HT29 colon
29.2 µM: M19-MEL melanoma
28.8 µM: NCI-H522 lung
35.3 µM: SR leukemia
35.8 µM: DLD-1 colon
60.2 µM: OVCAR-8 ovarian

CCOc1ccc(N=Nc2ccc3oc(=O)c(C(=O)Nc4ccc(OC)cc4)cc3c2)cc1
87.8 µM: NCI-H522 lung
52.9 µM: OVCAR-4 ovarian
67.6 µM: OVCAR-8 ovarian
91.7 µM: M19-MEL melanoma
82.8 µM: SNB-78 CNS
> 100 µM: HT29 colon | OVCAR-5 ovarian | DMS 273 small cell lung | KM20L2 colon | LXFL 529 NSCLC
86.7 µM: EKVX NSCLC
61.4 µM: DLD-1 colon

COC(=O)C1CCC(Nc2cccc(C(F)(F)F)c2)=N1 (stereo not drawn)
not listed: M19-MEL melanoma | KM20L2 colon | SR leukemia
> 100 µM: all other assays above

CC(=O)OC1CC2(c3ccccc3)C(=O)c3ccccc3N2O1 (stereo not drawn)
not listed: OVCAR-5 ovarian | RXF-631 renal
> 100 µM: all other assays above

COc1ccc(C2ON(c3ccccn3)CC=C2C)cc1 (stereo not drawn)
> 100 µM: all assays above

CC(C)OP(=O)(OC(C)C)/C(=N/N)NNc1ccc([N+](=O)[O-])cc1
not listed: HT29 colon | HOP-18 NSCLC | RXF-631 renal
> 100 µM: all other assays above

COc1cc(C(C)c2cc3c(cc2OCCCCOc2cc4c(cc2C(C)c2cc(OC)c(OC)c(OC)c2)OCO4)OCO3)cc(OC)c1OC (stereo not drawn)
45.1 µM: DMS 114 small cell lung
89.2 µM: XF 498 CNS
64 µM: SNB-78 CNS
not listed: NCI-H522 lung | DMS 273 small cell lung | HOP-18 NSCLC
> 100 µM: all other assays above

Cc1c(CCCl)c(N=[N+]=[N-])n2c(nc3ccccc32)c1C#N
5.21 µM: OVCAR-8 ovarian
1.08 µM: SR leukemia
4.73 µM: OVCAR-5 ovarian
3.54 µM: OVCAR-4 ovarian
4.4 µM: EKVX NSCLC
0.44 µM: NCI-H522 lung
4.52 µM: HT29 colon

O=c1c2ccccc2nc(-c2ccccc2)n1NC(=S)Nc1ccc(Cl)cc1[N+](=O)[O-]
not listed: XF 498 CNS | SNB-78 CNS | KM20L2 colon | EKVX NSCLC | RXF-631 renal
> 100 µM: all other assays above

CC1(C)C2CCC3(OCCO3)C1C1OC12 (stereo not drawn)
not listed: M19-MEL melanoma | LXFL 529 NSCLC | SR leukemia | DLD-1 colon | DMS 114 small cell lung
> 100 µM: all other assays above

NC(=S)N1N=C2c3ccccc3CC[C@H]2[C@@H]1c1cccs1
61.1 µM: DMS 114 small cell lung
73.3 µM: HT29 colon
36.6 µM: DMS 273 small cell lung
63 µM: SR leukemia
56.1 µM: NCI-H522 lung
62.9 µM: KM20L2 colon
not listed: RXF-631 renal
> 100 µM: all other assays above

CC12CC[C@H](O)C(C)(C)[C@H]1CC[C@](C)(O)C2COc1ccc2ccc(=O)oc2c1 (stereo partly drawn)
not listed: OVCAR-5 ovarian | RXF-631 renal
> 100 µM: all other assays above

O=C1c2nn(-c3ccccc3)nc2C(c2ccccc2)N1c1ccccc1 (stereo not drawn)
not listed: RXF-631 renal
> 100 µM: all other assays above

CC1C/C(=N\N(C)C)C(C#N)(C#N)C1(C#N)C#N (stereo not drawn)
56.1 µM: EKVX NSCLC
48.5 µM: OVCAR-5 ovarian
25.6 µM: OVCAR-4 ovarian
18.7 µM: HT29 colon
17.2 µM: SR leukemia
45 µM: OVCAR-8 ovarian
4.13 µM: NCI-H522 lung

CN(C)C=Nc1cccc2cnccc12
> 100 µM: NCI-H522 lung | HT29 colon | OVCAR-5 ovarian | OVCAR-4 ovarian | EKVX NSCLC | SR leukemia | OVCAR-8 ovarian
